Here are results for eight molecules from US12427157B2, “Methods for treatment of diseases involving acidic or hypoxic diseased tissues” (Cybrexa 1, Inc., priority 2018, dated 2025).

pIC50: −log10 of the molar value. Residues, ends and D or L forms follow the SMILES beside them. *: point of attachment. X23 = COC(=O)[C@@H](CS*)OC(=O)N(C)Cc1ccc(-c2[nH]c3cc(F)cc4c3c2CCNC4=O)cc1; X24 = CN(Cc1ccc(-c2[nH]c3cc(F)cc4c3c2CCNC4=O)cc1)C(=O)O[C@H](CS*)c1ccccc1; X25 = COC[C@@H](CS*)OC(=O)N(C)Cc1ccc(-c2[nH]c3cc(F)cc4c3c2CCNC4=O)cc1; X12 = C[C@H](COC(=O)N(C)Cc1ccc(-c2[nH]c3cc(F)cc4c3c2CCNC4=O)cc1)S*; X9 = C[C@@H](COC(=O)N(C)Cc1ccc(-c2[nH]c3cc(F)cc4c3c2CCNC4=O)cc1)S*

This assay deals with PARP (Homo sapiens, UniProt P09874). Put plainly: Enzymatic Assay 2: HT Universal Chemiluminescent PARP Assay of cleaved compounds.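 Further: PARP reaction with activated DNA run 1 h at room temperature, product detected via streptavidin-HRP and luminescence endpoint reading on a plate reader.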 The following applies: read-out: IC50 Enzymatic Assay 2; Examples cleaved per Example A (crude cleavage solution); R^8H starting materials as such.

For orientation: pIC50 means the negative decadic logarithm of the IC50, by convention in mol/L.

Chain of PARP (P09874 whole entry): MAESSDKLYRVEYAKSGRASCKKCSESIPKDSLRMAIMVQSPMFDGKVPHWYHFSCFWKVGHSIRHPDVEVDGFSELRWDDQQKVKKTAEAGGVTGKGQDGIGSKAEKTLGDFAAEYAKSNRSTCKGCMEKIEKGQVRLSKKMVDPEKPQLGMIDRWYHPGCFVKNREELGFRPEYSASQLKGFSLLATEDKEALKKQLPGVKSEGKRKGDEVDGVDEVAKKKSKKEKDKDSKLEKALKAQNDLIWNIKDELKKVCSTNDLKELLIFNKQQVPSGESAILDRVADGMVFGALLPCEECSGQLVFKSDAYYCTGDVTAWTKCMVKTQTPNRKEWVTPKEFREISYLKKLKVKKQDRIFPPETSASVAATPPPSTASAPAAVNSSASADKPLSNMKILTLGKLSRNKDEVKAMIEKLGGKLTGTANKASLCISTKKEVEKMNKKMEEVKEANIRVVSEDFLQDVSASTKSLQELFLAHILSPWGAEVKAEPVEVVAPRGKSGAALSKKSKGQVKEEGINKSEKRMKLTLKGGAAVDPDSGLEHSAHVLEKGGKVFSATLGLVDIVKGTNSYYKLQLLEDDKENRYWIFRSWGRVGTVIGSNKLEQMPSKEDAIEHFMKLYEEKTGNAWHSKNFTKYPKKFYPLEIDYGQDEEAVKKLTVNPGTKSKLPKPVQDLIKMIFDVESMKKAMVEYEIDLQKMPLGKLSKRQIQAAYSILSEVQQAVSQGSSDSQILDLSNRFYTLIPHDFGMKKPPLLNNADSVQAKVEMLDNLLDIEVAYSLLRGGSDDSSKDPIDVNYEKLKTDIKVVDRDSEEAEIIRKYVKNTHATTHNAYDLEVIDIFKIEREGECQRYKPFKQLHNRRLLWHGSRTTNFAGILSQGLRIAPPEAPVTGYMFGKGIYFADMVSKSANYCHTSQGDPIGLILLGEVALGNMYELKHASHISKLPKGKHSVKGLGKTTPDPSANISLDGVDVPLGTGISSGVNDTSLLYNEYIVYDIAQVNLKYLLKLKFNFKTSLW
Experimental: An equal volume of 1×PARP cocktail containing activated DNA was added to each well and the reaction was incubated for one hour at room temperature. The wells were washed twice with 1×PBS+0.1% Triton X-100 and twice with PBS. 50 ul/well of diluted streptavidin-HRP was added and the wells were incubated for one hour at room temperature. The wells were washed twice with 1×PBS+0.1% Triton X-100 and washed twice with PBS. The liquid was 5 removed, 100 ul/well 1:1 PeroxyGlow A/PeroxyGlow B was added and the chemiluminescent readings were measured on a BioTek Cytation 5 plate reader using the luminescence fiber endpoint.

As to `CC[C@H](C)[C@H](NC(=O)[C@@H]1CCCN1C(=O)[C@H](CC(N)=O)NC(=O)[C@H](CCC(N)=O)NC(=O)[C@H](CCC(=O)O)NC(=O)[C@H](C)N)C(=O)N[C@@H](Cc1ccc(O)cc1)C(=O)N[C@@H](Cc1c[nH]c2ccccc12)C(=O)N[C@@H](C)C(=O)N[C@@H](CCCNC(=N)N)C(=O)N[C@@H](Cc1ccc(O)cc1)C(=O)N[C@@H](C)C(=O)N[C@@H](CC(=O)O)C(=O)N[C@@H](Cc1c[nH]c2ccccc12)C(=O)N[C@@H](CC(C)C)C(=O)N[C@@H](Cc1ccccc1)C(=O)N[C@H](C(=O)N[C@H](C(=O)N1CCC[C@H]1C(=O)N[C@@H](CC(C)C)C(=O)N[C@@H](CC(C)C)C(=O)N[C@@H](CC(C)C)C(=O)N[C@@H](CC(C)C)C(=O)N[C@@H](CC(=O)O)C(=O)N[C@@H](CC(C)C)C(=O)N[C@@H](C)C(=O)N[C@@H](CC(C)C)C(=O)N[C@@H](CC(C)C)C(=O)N[C@H](C(=O)N[C@@H](CC(=O)O)C(=O)N[C@@H](C)C(=O)N[C@@H](CC(=O)O)C(=O)N[C@@H](CCC(=O)O)C(=O)N[C@@H](CSS[C@H](C)COC(=O)N(C)Cc1ccc(-c2[nH]c3cc(F)cc4c3c2CCNC4=O)cc1)C(=O)NCC(=O)O)C(C)C)[C@@H](C)O)[C@@H](C)O` [Example 19] (H-AEQNPIYWARYADWLFTTPLLLLDLALLVDADEC(X12)G-OH; N-terminus and C-terminus assumed), the pIC50 is 8.66.

Regarding `CC(C)C[C@H](NC(=O)[C@H](Cc1ccc(O)cc1)NC(=O)[C@H](C)NC(=O)[C@H](CCCNC(=N)N)NC(=O)[C@H](Cc1c[nH]c2ccccc12)NC(=O)[C@@H]1CCCN1C(=O)[C@H](CC(N)=O)NC(=O)[C@H](CCC(N)=O)NC(=O)[C@H](CC(=O)O)NC(=O)[C@H](CC(=O)O)NC(=O)[C@H](C)N)C(=O)N[C@@H](CC(=O)O)C(=O)N[C@@H](CC(C)C)C(=O)N[C@@H](CC(C)C)C(=O)N[C@@H](Cc1ccccc1)C(=O)N1CCC[C@H]1C(=O)N[C@H](C(=O)N[C@@H](CC(=O)O)C(=O)N[C@H](C(=O)N[C@@H](CC(C)C)C(=O)N[C@@H](CC(C)C)C(=O)N[C@@H](CC(C)C)C(=O)N[C@@H](CC(=O)O)C(=O)N[C@@H](CC(C)C)C(=O)N[C@@H](CC(C)C)C(=O)N[C@@H](Cc1c[nH]c2ccccc12)C(=O)N[C@@H](CC(=O)O)C(=O)N[C@@H](C)C(=O)N[C@@H](CC(=O)O)C(=O)N[C@@H](CCC(=O)O)C(=O)N[C@@H](CSS[C@H](C)COC(=O)N(C)Cc1ccc(-c2[nH]c3cc(F)cc4c3c2CCNC4=O)cc1)C(=O)NCC(=O)O)[C@@H](C)O)[C@@H](C)O` [Example 20], the pIC50 is 8.77.

With `CC(C)C[C@H](NC(=O)[C@H](Cc1ccc(O)cc1)NC(=O)[C@H](C)NC(=O)[C@H](CCCNC(=N)N)NC(=O)[C@H](Cc1c[nH]c2ccccc12)NC(=O)[C@@H]1CCCN1C(=O)[C@H](CC(N)=O)NC(=O)[C@H](CCC(N)=O)NC(=O)[C@H](CC(=O)O)NC(=O)[C@H](CC(=O)O)NC(=O)[C@H](C)N)C(=O)N[C@@H](CC(=O)O)C(=O)N[C@@H](CC(C)C)C(=O)N[C@@H](CC(C)C)C(=O)N[C@@H](Cc1ccccc1)C(=O)N1CCC[C@H]1C(=O)N[C@H](C(=O)N[C@@H](CC(=O)O)C(=O)N[C@H](C(=O)N[C@@H](CC(C)C)C(=O)N[C@@H](CC(C)C)C(=O)N[C@@H](CC(C)C)C(=O)N[C@@H](CC(=O)O)C(=O)N[C@@H](CC(C)C)C(=O)N[C@@H](CC(C)C)C(=O)N[C@@H](Cc1c[nH]c2ccccc12)C(=O)N[C@@H](CSS[C@@H](C)COC(=O)N(C)Cc1ccc(-c2[nH]c3cc(F)cc4c3c2CCNC4=O)cc1)C(=O)NCC(=O)O)[C@@H](C)O)[C@@H](C)O` [Example 21], the pIC50 was 8.66.

As for `CC[C@H](C)[C@H](NC(=O)[C@@H]1CCCN1C(=O)[C@H](CC(N)=O)NC(=O)[C@H](CCC(N)=O)NC(=O)[C@H](CCC(=O)O)NC(=O)[C@H](C)N)C(=O)N[C@@H](Cc1ccc(O)cc1)C(=O)N[C@@H](Cc1c[nH]c2ccccc12)C(=O)N[C@@H](C)C(=O)N[C@@H](CCCNC(=N)N)C(=O)N[C@@H](Cc1ccc(O)cc1)C(=O)N[C@@H](C)C(=O)N[C@@H](CC(=O)O)C(=O)N[C@@H](Cc1c[nH]c2ccccc12)C(=O)N[C@@H](CC(C)C)C(=O)N[C@@H](Cc1ccccc1)C(=O)N[C@H](C(=O)N[C@H](C(=O)N1CCC[C@H]1C(=O)N[C@@H](CC(C)C)C(=O)N[C@@H](CC(C)C)C(=O)N[C@@H](CC(C)C)C(=O)N[C@@H](CC(C)C)C(=O)N[C@@H](CC(=O)O)C(=O)N[C@@H](CC(C)C)C(=O)N[C@@H](C)C(=O)N[C@@H](CC(C)C)C(=O)N[C@@H](CC(C)C)C(=O)N[C@H](C(=O)N[C@@H](CC(=O)O)C(=O)N[C@@H](C)C(=O)N[C@@H](CC(=O)O)C(=O)N[C@@H](CCC(=O)O)C(=O)N[C@@H](CSS[C@@H](C)COC(=O)N(C)Cc1ccc(-c2[nH]c3cc(F)cc4c3c2CCNC4=O)cc1)C(=O)NCC(=O)O)C(C)C)[C@@H](C)O)[C@@H](C)O` [Example 22] (H-AEQNPIYWARYADWLFTTPLLLLDLALLVDADEC(X9)G-OH; N-terminus and C-terminus assumed), the pIC50 was 8.74.

Consider `CC(C)C[C@H](NC(=O)[C@H](Cc1ccc(O)cc1)NC(=O)[C@H](C)NC(=O)[C@H](CCCNC(=N)N)NC(=O)[C@H](Cc1c[nH]c2ccccc12)NC(=O)[C@@H]1CCCN1C(=O)[C@H](CC(N)=O)NC(=O)[C@H](CCC(N)=O)NC(=O)[C@H](CC(=O)O)NC(=O)[C@H](CC(=O)O)NC(=O)[C@H](C)N)C(=O)N[C@@H](CC(=O)O)C(=O)N[C@@H](CC(C)C)C(=O)N[C@@H](CC(C)C)C(=O)N[C@@H](Cc1ccccc1)C(=O)N1CCC[C@H]1C(=O)N[C@H](C(=O)N[C@@H](CC(=O)O)C(=O)N[C@H](C(=O)N[C@@H](CC(C)C)C(=O)N[C@@H](CC(C)C)C(=O)N[C@@H](CC(C)C)C(=O)N[C@@H](CC(=O)O)C(=O)N[C@@H](CC(C)C)C(=O)N[C@@H](CC(C)C)C(=O)N[C@@H](Cc1c[nH]c2ccccc12)C(=O)N[C@@H](CC(=O)O)C(=O)N[C@@H](C)C(=O)N[C@@H](CC(=O)O)C(=O)N[C@@H](CCC(=O)O)C(=O)N[C@@H](CSS[C@@H](C)COC(=O)N(C)Cc1ccc(-c2[nH]c3cc(F)cc4c3c2CCNC4=O)cc1)C(=O)NCC(=O)O)[C@@H](C)O)[C@@H](C)O` [Example 23], for which the pIC50 was 8.60.

`CC[C@H](C)[C@H](NC(=O)[C@@H]1CCCN1C(=O)[C@H](CC(N)=O)NC(=O)[C@H](CCC(N)=O)NC(=O)[C@H](CCC(=O)O)NC(=O)[C@H](C)N)C(=O)N[C@@H](Cc1ccc(O)cc1)C(=O)N[C@@H](Cc1c[nH]c2ccccc12)C(=O)N[C@@H](C)C(=O)N[C@@H](CCCNC(=N)N)C(=O)N[C@@H](Cc1ccc(O)cc1)C(=O)N[C@@H](C)C(=O)N[C@@H](CC(=O)O)C(=O)N[C@@H](Cc1c[nH]c2ccccc12)C(=O)N[C@@H](CC(C)C)C(=O)N[C@@H](Cc1ccccc1)C(=O)N[C@H](C(=O)N[C@H](C(=O)N1CCC[C@H]1C(=O)N[C@@H](CC(C)C)C(=O)N[C@@H](CC(C)C)C(=O)N[C@@H](CC(C)C)C(=O)N[C@@H](CC(C)C)C(=O)N[C@@H](CC(=O)O)C(=O)N[C@@H](CC(C)C)C(=O)N[C@@H](C)C(=O)N[C@@H](CC(C)C)C(=O)N[C@@H](CC(C)C)C(=O)N[C@H](C(=O)N[C@@H](CC(=O)O)C(=O)N[C@@H](C)C(=O)N[C@@H](CC(=O)O)C(=O)N[C@@H](CCC(=O)O)C(=O)N[C@@H](CSSC[C@@H](OC(=O)N(C)Cc1ccc(-c2[nH]c3cc(F)cc4c3c2CCNC4=O)cc1)c1ccccc1)C(=O)NCC(=O)O)C(C)C)[C@@H](C)O)[C@@H](C)O` [Example 25] (H-AEQNPIYWARYADWLFTTPLLLLDLALLVDADEC(X24)G-OH; N-terminus and C-terminus assumed): the pIC50 was 8.47.

On to `CC[C@H](C)[C@H](NC(=O)[C@@H]1CCCN1C(=O)[C@H](CC(N)=O)NC(=O)[C@H](CCC(N)=O)NC(=O)[C@H](CCC(=O)O)NC(=O)[C@H](C)N)C(=O)N[C@@H](Cc1ccc(O)cc1)C(=O)N[C@@H](Cc1c[nH]c2ccccc12)C(=O)N[C@@H](C)C(=O)N[C@@H](CCCNC(=N)N)C(=O)N[C@@H](Cc1ccc(O)cc1)C(=O)N[C@@H](C)C(=O)N[C@@H](CC(=O)O)C(=O)N[C@@H](Cc1c[nH]c2ccccc12)C(=O)N[C@@H](CC(C)C)C(=O)N[C@@H](Cc1ccccc1)C(=O)N[C@H](C(=O)N[C@H](C(=O)N1CCC[C@H]1C(=O)N[C@@H](CC(C)C)C(=O)N[C@@H](CC(C)C)C(=O)N[C@@H](CC(C)C)C(=O)N[C@@H](CC(C)C)C(=O)N[C@@H](CC(=O)O)C(=O)N[C@@H](CC(C)C)C(=O)N[C@@H](C)C(=O)N[C@@H](CC(C)C)C(=O)N[C@@H](CC(C)C)C(=O)N[C@H](C(=O)N[C@@H](CC(=O)O)C(=O)N[C@@H](C)C(=O)N[C@@H](CC(=O)O)C(=O)N[C@@H](CCC(=O)O)C(=O)N[C@@H](CSSC[C@@H](OC(=O)N(C)Cc1ccc(-c2[nH]c3cc(F)cc4c3c2CCNC4=O)cc1)C(=O)OC)C(=O)NCC(=O)O)C(C)C)[C@@H](C)O)[C@@H](C)O` [Example 26] (H-AEQNPIYWARYADWLFTTPLLLLDLALLVDADEC(X23)G-OH; N-terminus and C-terminus assumed), for which the pIC50 was 8.70.

For the molecule `CC[C@H](C)[C@H](NC(=O)[C@@H]1CCCN1C(=O)[C@H](CC(N)=O)NC(=O)[C@H](CCC(N)=O)NC(=O)[C@H](CCC(=O)O)NC(=O)[C@H](C)N)C(=O)N[C@@H](Cc1ccc(O)cc1)C(=O)N[C@@H](Cc1c[nH]c2ccccc12)C(=O)N[C@@H](C)C(=O)N[C@@H](CCCNC(=N)N)C(=O)N[C@@H](Cc1ccc(O)cc1)C(=O)N[C@@H](C)C(=O)N[C@@H](CC(=O)O)C(=O)N[C@@H](Cc1c[nH]c2ccccc12)C(=O)N[C@@H](CC(C)C)C(=O)N[C@@H](Cc1ccccc1)C(=O)N[C@H](C(=O)N[C@H](C(=O)N1CCC[C@H]1C(=O)N[C@@H](CC(C)C)C(=O)N[C@@H](CC(C)C)C(=O)N[C@@H](CC(C)C)C(=O)N[C@@H](CC(C)C)C(=O)N[C@@H](CC(=O)O)C(=O)N[C@@H](CC(C)C)C(=O)N[C@@H](C)C(=O)N[C@@H](CC(C)C)C(=O)N[C@@H](CC(C)C)C(=O)N[C@H](C(=O)N[C@@H](CC(=O)O)C(=O)N[C@@H](C)C(=O)N[C@@H](CC(=O)O)C(=O)N[C@@H](CCC(=O)O)C(=O)N[C@@H](CSSC[C@H](COC)OC(=O)N(C)Cc1ccc(-c2[nH]c3cc(F)cc4c3c2CCNC4=O)cc1)C(=O)NCC(=O)O)C(C)C)[C@@H](C)O)[C@@H](C)O` [Example 27] (H-AEQNPIYWARYADWLFTTPLLLLDLALLVDADEC(X25)G-OH; N-terminus and C-terminus assumed), the pIC50 was 8.41.
